US20210134398A1, “Combinatorial Chemistry Computational System and Enhanced Selection Method” (Southern Methodist University, priority 2019, published 2021)
Where two headings read alike, the source gives them in different places.

How the values were obtained:
[1] = target: T1, Normal Human MDR1 P-glycoprotein (Homo sapiens, UniProt P08183); assay: ATPase activity assay (basal and verapamil-stimulated), P-gp in nanodiscs; type: biochemical; settings: for Effect on stimulated ATPase / Stimulated ATPase: in the presence of verapamil; for Stimulated ATPase / Basal ATPase: ± standard deviation; for Effect on basal ATPase / Basal ATPase: no added transport substrate
T1 construct: made in house; host or cells: Pichia pastoris (P-gp); E. coli BL21 (DE3) (MSP1E3D1)
T1 sequence (P08183 whole entry): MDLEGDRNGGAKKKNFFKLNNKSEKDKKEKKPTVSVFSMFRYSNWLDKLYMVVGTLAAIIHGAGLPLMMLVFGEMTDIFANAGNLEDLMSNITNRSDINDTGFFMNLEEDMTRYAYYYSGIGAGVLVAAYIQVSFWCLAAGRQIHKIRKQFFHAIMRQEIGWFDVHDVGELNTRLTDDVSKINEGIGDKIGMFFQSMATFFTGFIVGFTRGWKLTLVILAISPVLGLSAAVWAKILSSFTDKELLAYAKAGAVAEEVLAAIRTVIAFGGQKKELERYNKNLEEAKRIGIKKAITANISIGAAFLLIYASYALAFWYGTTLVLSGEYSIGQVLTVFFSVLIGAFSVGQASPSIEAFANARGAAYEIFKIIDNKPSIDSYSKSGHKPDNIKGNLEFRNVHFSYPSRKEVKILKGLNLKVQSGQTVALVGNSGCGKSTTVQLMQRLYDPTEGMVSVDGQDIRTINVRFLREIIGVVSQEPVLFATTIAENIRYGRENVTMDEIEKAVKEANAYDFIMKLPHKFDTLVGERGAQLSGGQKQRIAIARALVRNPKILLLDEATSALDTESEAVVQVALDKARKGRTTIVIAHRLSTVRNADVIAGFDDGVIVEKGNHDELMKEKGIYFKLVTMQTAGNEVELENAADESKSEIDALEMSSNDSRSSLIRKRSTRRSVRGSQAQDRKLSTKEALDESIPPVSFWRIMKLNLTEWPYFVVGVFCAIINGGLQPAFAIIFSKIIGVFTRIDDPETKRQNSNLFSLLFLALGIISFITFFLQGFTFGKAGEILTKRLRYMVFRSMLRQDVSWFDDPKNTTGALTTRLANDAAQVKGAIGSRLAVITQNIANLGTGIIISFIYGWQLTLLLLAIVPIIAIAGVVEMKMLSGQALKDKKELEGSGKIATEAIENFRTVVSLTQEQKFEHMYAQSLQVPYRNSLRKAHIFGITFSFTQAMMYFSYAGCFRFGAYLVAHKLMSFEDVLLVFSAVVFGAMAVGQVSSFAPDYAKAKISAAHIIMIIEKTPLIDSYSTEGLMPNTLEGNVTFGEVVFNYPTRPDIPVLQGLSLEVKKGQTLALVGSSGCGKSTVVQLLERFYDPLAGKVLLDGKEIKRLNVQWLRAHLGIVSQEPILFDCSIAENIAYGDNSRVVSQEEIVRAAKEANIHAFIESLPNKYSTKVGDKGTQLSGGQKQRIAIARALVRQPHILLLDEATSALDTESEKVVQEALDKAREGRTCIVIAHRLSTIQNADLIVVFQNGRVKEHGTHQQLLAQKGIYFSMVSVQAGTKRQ
Text: To assess whether the observed discrepancies of compounds stimulating basal P-gp ATPase activity but not being transport substrates of the human pump in the cell culture assessments were due to the fact that these biochemical assays used a cysteineless variant of the mouse MDR3 P-glycoprotein, the experiments were repeated using normal human MDR1 P-gp. In order to stabilize the human protein for the activity assays, the protein was assembled into membrane nanodiscs as described herein.
P-glycoprotein Purification. Cysteine-less MDR3 and the human normal MDR1 P-glycoprotein was recombinantly expressed in the yeast Pichia pastoris essentially as in^45, 46 and used for assaying ATP hydrolysis and ATP binding to the protein in the presence of the 29-variants. Purification of the protein was performed as described^49 with small modifications resulting in highly enriched P-gp in mixed micelles containing dodecyl maltoside (DDM) and lysophosphatidyl choline^26.
Nanodisc assembly. Human P-gp in mixed detergent micelles obtained during protein purification, was reconstituted into nanodiscsas described in references^73, 74 with small modifications. […] The detergent was removed with Bio-Beads™ SM-2 Adsorbent Media (BioRad). Ni-NTA Agarose (Qiagen) chromatography was used to purify P-gp reconstituted nanodiscs using 6 bed volumes of start buffer (20% (v/v) glycerol, 50 mM Tris-CL pH 7.5 at 4° C., 50 mM NaCl), and 5 bed volumes of elution buffer (20% (v/v) glycerol, 50 mM Tris-Cl pH 7.5 at 4° C., 50 mM NaCl, 300 mM imidazole).
ATPase Activity Assays. ATP hydrolysis activity was measured using a coupled enzyme assay^72 as modified in reference^26.

[2] = target: P-gp (P-gp over-expressing cell line, DU145TXR) (Homo sapiens, UniProt P08183); assay: Cellular accumulation of experimental compounds by LC-MS/MS with and without tariquidar; settings: for Transport substrate for P-gp: not told
Chain of P-gp (P-gp over-expressing cell line, DU145TXR) (P08183 whole entry): as above
Protocol: Stimulation of basal ATPase by 29-variants was used as an indicator that a compound may be a P-gp transport substrate. Effects on stimulated P-gp ATPase activity indicated whether a compound directly interfered with ATP usage by the protein (***, p<0.001; **, p<0.01; *, p<0.1; NS, not significant). Quantitative cellular accumulation of 29-variants was performed using LC-MS/MS and is presented as a ratio of the cellular amounts of 29-variants in the presence of P-gp inhibitor, tariquidar, divided by amounts accumulated in its absence. […] Binding of an ATP analog, SL-ATP, to P-gp was used to determine whether ATP binding to P-gp was affected by the 29-variants. Values +/−standard deviations are shown for at least three different P-gp preparations and three independent SL-ATP titration experiments. The values for SL-ATP binding in the presence of 29 were taken directly from Brewer et al. (2014).
Intracellular accumulation of compound 29 variants. Cell accumulation assays for each of the 29 variants were performed as in reference^28 to more directly assess whether the compounds were indeed transport substrates for P-gp.
Cellular Accumulation Assays for Experimental P-gp Inhibitors. Cells used (DU145TXR), cell culturing, cell exposure to compounds, cellular handling and extractions were performed as described in^28. LC-MS/MS methods were performed as described in^71 and as modified in^28.

[3] = target: T2, P-gp-catalyzed transport of calcein AM in DU145TXR cells (Homo sapiens, UniProt P08183); assay: Calcein AM accumulation assay; type: cell-based; settings: after 6-hour pre-incubation, compared to parental 29
T2 construct: DU145 human prostate cancer cells^52 as well as the multidrug resistant sub-line, DU145TXR; endogenous in cells; host or cells: DU145TXR (paclitaxel-selected sub-line of human DU145 prostate cancer cells)
T2 sequence (P08183 whole entry): as above
Protocol: Accumulation and cellular retention of calcein AM in P-gp overexpressing prostate cancer cells upon incubation with Group 1 SMU-29 variants. Calcein AM accumulation assays have been used by us previously to evaluate P-gp-substrate accumulation in real time in the presence or absence of P-gp inhibitors^28. For these assays, P-gp overexpressing DU145TXR cells were incubated with the respective inhibitors in the presence of the P-gp substrate, calcein AM. Inhibition of P-gp leads to cellular accumulation of calcein AM and to cleavage of its acetoxymethyl ester groups, resulting in the generation of the highly fluorescent compound, calcein. The anionic calcein is not a substrate of P-gp and remains in the cells. In these assays, the relative fluorescence of cellular calcein was measured over time and the results of these assays are shown in FIG. 13A. […]
Calcein AM assay. To assess inhibition of P-gp-catalyzed transport of the P-gp pump substrate, calcein AM, DU145TXR cells were seeded in 96 wells plates and allowed to grow in complete medium until confluency was reached. Medium was removed, and cells were treated […] P-gp inhibitory compounds and 1 μg/mL calcein AM (Life Technologies, OR) and diluted into phenol red free RPMI 1640 media. To study the effect of pre-incubation of compounds, cells were treated with just P-gp inhibitory compounds and incubated at 37° C. for six hours before adding calcein AM. Fluorescence excitation at 485 nm with a 20 nm gate and at emission at 535 nm with a 20 nm gate was measured using a BioTek Cytation 5 imaging multi-mode reader (Bio-Tek, Winooski, Vt.) over 60 minutes in 20 minute intervals. DMSO was used as vehicle. Results were plotted as the mean with standard deviation (SD) of six replicates per concentration and are representative of at least two independent experiments.

[4] = target: T2, P-gp-catalyzed transport of calcein AM in DU145TXR cells; assay: Calcein AM accumulation assay; type: cell-based; settings: without pre-incubation, compared to parental 29; 5 μM stated for Group 2

Effect on stimulated ATPase [1]	Stimulated ATPase [1]	Effect on basal ATPase [1]	Basal ATPase [1]	Cellular accumulation: ratio of plus Tariquidar over no Tariquidar [2]	Intracellular accumulation in absence vs presence of tariquidar (in words) [2]	Cellular accumulation: ratio of plus Tariquidar over no Tariquidar ([2]; human)	Transport substrate for P-gp [2]	Calcein accumulation in DU145TXR (in words) [3]	Calcein accumulation in DU145TXR (in words) ([3]; listed as 278)	Compound	Transport substrate for P-gp ([2]; human)	Calcein accumulation in DU145TXR (in words) [4]
inhibitor	61 ± 7 % of DMSO	none	89 ± 7 % of DMSO	–	very large and significant increase	1.9	–	remained strongest	–	COc1cc(NC(=O)CSCC(=O)Nc2cc(-c3cc(C)c(C)cc3C)nn2-c2ccccc2)cc(OC)c1OC [29-238, N-[1-phenyl-3-(2,4,5-trimethylphenyl)-1H-pyrazol-5-yl]-2-({[(3,4,5-trimethoxyphenyl)carbamoyl]methyl}sulfanyl)acetamide]	–	considerably increased calcein accumulation
inhibitor	62 ± 3 % of DMSO	none	88 ± 9 % of DMSO	1.0	no significant difference	–	–	–	–	Cc1cc(C)c(-c2cc(NC(=O)CSc3nnc(C4CC4)[nH]3)n(-c3ccccc3)n2)cc1C [compound 29, reference compound]	–	–

Further lines, the compound ahead of its results:

Compound	Effect on stimulated ATPase [1]	Stimulated ATPase [1]	Effect on basal ATPase [1]	Basal ATPase [1]	Cellular accumulation: ratio of plus Tariquidar over no Tariquidar [2]	Intracellular accumulation in absence vs presence of tariquidar (in words) [2]	Cellular accumulation: ratio of plus Tariquidar over no Tariquidar ([2]; human)	Transport substrate for P-gp [2]	Calcein accumulation in DU145TXR (in words) [3]	Calcein accumulation in DU145TXR (in words) ([3]; listed as 278)	Transport substrate for P-gp ([2]; human)	Calcein accumulation in DU145TXR (in words) [4]
2-{[2-(9H-flouoren-2-yl)-2-oxoethyl]}-N-[1-phenyl-3-(2,4,5-trimethylphenyl0-1H-pyrazol-5-yl]acetamide [29-216]	inhibitor	64 ± 6 % of DMSO	inhibitor	69 ± 8 % of DMSO	1.1	–	–	–	–	–	–	–
Cc1cc(C)c(-c2cc(NC(=O)CSCC(=O)N3c4ccccc4CCc4ccccc43)n(-c3ccccc3)n2)cc1C [29-227, 2-[(2-{2-azatricyclo[9.4.0.0]pentadeca-1(11),3(8},4,6,12,14-hexaen-2-yl)-2-oxoethyl)sulfanyl]-N-[1-phenyl-3-(2,4,5-trimethylphenyl)-1H-pyrazol-5-yl]acetamide]	inhibitor	62 ± 5 % of DMSO	none	83 ± 7 % of DMSO	1.0	–	–	–	–	–	–	–
Cc1cc(C)c(-c2cc(NC(=O)CSCC(=O)Nc3ccc4ccccc4c3)n(-c3ccccc3)n2)cc1C [29-231, 2-({[(naphthalen-2-yl)carbamoyl]methyl}sulfanyl)-N-[1-phenyl-3-(2,4,5-trimethylphenyl)-1H-pyrazol-5-yl]acetamide]	inhibitor	40 ± 3 % of DMSO	inhibitor	70 ± 4 % of DMSO	–	no significant cellular accumulation	0.9	no	–	–	none of the Group 1 compounds functions as a transport substrate of P-gp	–
Cc1cc(C)c(-c2cc(NC(=O)CSCC(=O)Nc3ccc4ncsc4c3)n(-c3ccccc3)n2)cc1C [29-255, 2-({[(1,3-benzothiazol-6-yl)carbamoyl]methyl}sulfanyl)-N-[1-phenyl-3-(2,4,5 trimethylphenyl)-1H-pyrazol-5-yl]acetamide]	inhibitor	59 ± 6 % of DMSO	none	84 ± 9 % of DMSO	–	more modest, but statistically significant increases	1.2	–	remained strongest	–	–	considerably increased calcein accumulation
Cc1cc(C)c(-c2cc(NC(=O)CSCC(=O)NC34CC5CC(CC(C5)C3)C4)n(-c3ccccc3)n2)cc1C [29-278, 2-({[(adamantan-1-yl)carbamoyl]methyl}sulfanyl)-N-[1-phenyl-3-(2,4,5-trimethylphenyl)-1H-pyrazol-5-yl]acetamide]	inhibitor	63 ± 6 % of DMSO	inhibitor	74 ± 6 % of DMSO	–	–	1.0	–	increased calcein accumulation	comparable to 29	–	less calcein accumulation than the parental compound
Cc1cc(C)c(-c2cc(NC(=O)CSCC(=O)NC(c3ccccc3)c3ccccc3)n(-c3ccccc3)n2)cc1C [29-280, N-(diphenylmethyl)-2-[({[1-phenyl-3-(2,4,5-trimethylphenyl)-1H-pyrazol-5-yl]carbamoyl)methyl}sulfanyl]acetamide]	inhibitor	54 ± 7 % of DMSO	inhibitor	76 ± 8 % of DMSO	–	–	1.2	–	comparable to 29	–	–	less calcein accumulation than the parental compound
Cc1cc(C)c(-c2cc(NC(=O)CSCC(=O)NCc3ccc(F)cc3)n(-c3ccccc3)n2)cc1C [29-286]	inhibitor	59 ± 4 % of DMSO	none	95 ± 3 % of DMSO	1.3	more modest, but statistically significant increases	–	–	comparable to 29	–	–	comparable to 29
